The values below come from patent publication US10160755B2 (Plexxikon Inc., priority 2015, dated 2018).

The target of one assay is T1, FLT3-ITD (Homo sapiens, UniProt P36888).
T1 construct: FLT3-ITD; Invitrogen #PV6190
T1 sequence (P36888 1-993): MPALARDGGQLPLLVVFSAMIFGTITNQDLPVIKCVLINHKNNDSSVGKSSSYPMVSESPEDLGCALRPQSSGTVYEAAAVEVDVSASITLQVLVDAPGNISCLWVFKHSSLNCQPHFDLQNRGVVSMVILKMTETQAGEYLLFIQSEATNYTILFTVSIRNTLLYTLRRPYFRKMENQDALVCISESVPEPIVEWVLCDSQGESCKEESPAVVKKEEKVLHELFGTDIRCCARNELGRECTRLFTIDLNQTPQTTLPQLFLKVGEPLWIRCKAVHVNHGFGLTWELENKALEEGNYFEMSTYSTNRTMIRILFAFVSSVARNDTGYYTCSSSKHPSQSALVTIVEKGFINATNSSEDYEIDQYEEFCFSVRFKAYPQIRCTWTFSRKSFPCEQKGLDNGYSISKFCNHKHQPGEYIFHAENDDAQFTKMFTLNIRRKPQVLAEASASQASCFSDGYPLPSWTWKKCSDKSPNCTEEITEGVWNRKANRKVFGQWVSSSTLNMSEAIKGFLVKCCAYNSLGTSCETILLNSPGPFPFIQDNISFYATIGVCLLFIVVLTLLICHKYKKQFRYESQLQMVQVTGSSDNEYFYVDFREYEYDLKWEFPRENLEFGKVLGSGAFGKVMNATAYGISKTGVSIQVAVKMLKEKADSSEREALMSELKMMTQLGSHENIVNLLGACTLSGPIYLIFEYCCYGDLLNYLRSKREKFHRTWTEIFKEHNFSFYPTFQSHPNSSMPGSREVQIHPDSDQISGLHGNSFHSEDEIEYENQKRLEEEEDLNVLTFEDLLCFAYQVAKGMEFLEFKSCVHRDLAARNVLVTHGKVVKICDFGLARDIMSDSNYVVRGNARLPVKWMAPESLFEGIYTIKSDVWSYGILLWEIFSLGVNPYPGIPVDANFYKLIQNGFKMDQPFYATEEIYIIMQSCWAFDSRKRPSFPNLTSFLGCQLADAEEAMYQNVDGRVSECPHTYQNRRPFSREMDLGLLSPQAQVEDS
Briefly: FLT3-ITD biochemical kinase assay (AlphaScreen). The procedure, abridged:
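Compounds were tested against recombinant enzyme using AlphaScreen detection of tyrosine-phosphorylated biotin-poly(Glu4-Tyr) (30 nM final). The ATP concentration differed by construct: 10 μM for D835Y, 100 μM for ITD.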

The target in another assay is T2, FLT3-D835Y (Homo sapiens, UniProt P36888, D835Y).
T2 construct: purchased Invitrogen PV3967
T2 sequence (P36888 27-993 D835Y): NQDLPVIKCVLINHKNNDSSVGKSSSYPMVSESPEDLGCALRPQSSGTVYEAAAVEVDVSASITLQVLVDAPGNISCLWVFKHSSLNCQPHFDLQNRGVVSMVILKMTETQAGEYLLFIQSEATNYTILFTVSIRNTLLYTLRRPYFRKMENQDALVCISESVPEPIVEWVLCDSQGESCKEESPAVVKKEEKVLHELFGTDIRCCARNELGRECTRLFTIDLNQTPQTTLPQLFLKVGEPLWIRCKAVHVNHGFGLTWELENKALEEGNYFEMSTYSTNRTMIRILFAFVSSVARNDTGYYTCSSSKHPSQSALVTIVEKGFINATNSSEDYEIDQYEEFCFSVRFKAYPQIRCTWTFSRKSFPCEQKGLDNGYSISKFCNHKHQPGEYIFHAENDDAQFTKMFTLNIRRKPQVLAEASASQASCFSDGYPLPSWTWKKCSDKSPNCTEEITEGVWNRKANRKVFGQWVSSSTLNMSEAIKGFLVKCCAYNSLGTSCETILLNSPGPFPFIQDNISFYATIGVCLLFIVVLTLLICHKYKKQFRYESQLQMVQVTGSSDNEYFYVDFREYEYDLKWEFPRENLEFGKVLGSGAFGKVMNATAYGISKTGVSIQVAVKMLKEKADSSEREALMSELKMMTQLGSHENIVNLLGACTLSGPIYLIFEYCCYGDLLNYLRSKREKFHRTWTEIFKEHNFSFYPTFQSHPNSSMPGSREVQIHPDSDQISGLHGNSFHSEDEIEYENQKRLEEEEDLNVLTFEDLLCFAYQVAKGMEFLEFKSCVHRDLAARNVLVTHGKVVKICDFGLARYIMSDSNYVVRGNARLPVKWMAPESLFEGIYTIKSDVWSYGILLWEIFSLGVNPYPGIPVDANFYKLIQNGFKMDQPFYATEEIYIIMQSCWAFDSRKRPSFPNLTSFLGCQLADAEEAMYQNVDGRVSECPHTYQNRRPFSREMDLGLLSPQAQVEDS
Put plainly: FLT3-D835Y biochemical kinase assay (AlphaScreen). The source says:
In order to determine the effect of compounds on FLT3 catalytic activity, kinase assays using recombinant enzymes and AlphaScreen® technology have been established. When the kinases are catalytically active, they phosphorylate a biotinylated peptide substrate on tyrosine residues. Using AlphaScreen® technology, the ability of the compounds to affect the catalytic activity of the kinases can be measured quantitatively. The peptide substrate is immobilized by the AlphaScreen® Streptavidin Donor beads and, upon phosphorylation by a tyrosine kinase, can bind to AlphaScreen® Anti-Phosphotyrosine (PY20) Acceptor beads. Upon excitation of these beads with laser light at 680 nm, singlet oxygen is produced. This singlet oxygen is rapidly quenched, unless the AlphaScreen® Anti-Phosphotyrosine (PY20) Acceptor beads are in close proximity, in which case a proximity signal can be measured at 580 nm. In the presence of catalytic activity, there is a very strong proximity signal. Selective kinase inhibitors affect a decrease in this proximity signal through a decrease in tyrosine phosphorylation of the peptide substrate.
Substrate • Poly (Glu4-Tyr) Peptide, biotin conjugate [Biotin-GG(EEEEY)10EE (SEQ ID NO: 4)] • UBI/Millipore #12-440 • Final concentration=30 nM
Adenosine Triphosphate (ATP) • Sigma #A-3377 • Final concentration for IC50 determination=10 μM (FLT3-D835Y) or 100 μM (FLT3 or FLT3-ITD) • Detection Reagent • AlphaScreen® Phosphotyrosine (PY20) Assay Kit • Perkin-Elmer #6760601M • Final concentration=10 μg/mL
Centrifuge 1 minute, shake to mix, and incubate as follows:
• Mix Streptavidin Donor beads at 6× final concentration in Stop/Detection buffer. • Add 5 μL Streptavidin Donor beads to the reaction plate. Centrifuge 1 minute, shake to mix, and incubate at room temperature for 20 minutes. • Mix Anti-Phosphotyrosine (PY20) Acceptor beads at 6× final concentration in Stop/Detection buffer. • Add 5 μL Anti-Phosphotyrosine (PY20) beads to the reaction plate. • Centrifuge 1 minute, shake to mix, and incubate at room temperature for 60 minutes. • Read plate on Wallac EnVision™ 2103 Multilabel Reader. In Vivo Model System Testing

For `COC(=O)c1cc(-c2cnc3[nH]cc(-c4ccc5ncsc5c4)c3n2)ccc1C` [P-165, methyl 5-[7-(1,3-benzothiazol-6-yl)-5H-pyrrolo[2,3-b]pyrazin-2-yl]-2-methyl-benzoate], the IC50 against FLT3-ITD and against FLT3-D835Y was 0.0001 to 1 µM in each case.
On to `CN(c1cccc(-c2cnc3[nH]cc(-c4ccc5ncsc5c4)c3n2)c1)S(C)(=O)=O` [P-167, N-[3-[7-(1,3-benzothiazol-6-yl)-5H-pyrrolo[2,3-b]pyrazin-2-yl]phenyl]-N-methyl-methanesulfonamide], for which the IC50 at FLT3-ITD and on FLT3-D835Y was 0.0001 to 1 µM throughout.
For the compound `O=S1(=O)CCCN1c1cccc(-c2cnc3[nH]cc(-c4ccc5ncsc5c4)c3n2)c1` [P-170, 2-[3-[7-(1,3-benzothiazol-6-yl)-5H-pyrrolo[2,3-b]pyrazin-2-yl]phenyl]-1,2-thiazolidine 1,1-dioxide], the IC50 against FLT3-ITD and at FLT3-D835Y was 0.0001 to 1 µM each time.
With `O=C(C1CC1)N1CC=C(c2cnc3[nH]cc(-c4ccc5ncn(C6CCCNC6)c5c4)c3n2)C1` (stereo not drawn) [P-137, cyclopropyl-[3-[7-[3-(3-piperidyl)benzimidazol-5-yl]-5H-pyrrolo[2,3-b]pyrazin-2-yl]-2,5-dihydropyrrol-1-yl]methanone], the 50% inhibitory concentration (IC50) on FLT3-ITD and on FLT3-D835Y was 0.0001 to 1 µM throughout.
In the case of `COc1cc(-c2cnc3[nH]cc(-c4ccc5ncn(CC(F)(F)F)c5c4)c3c2)ccn1` [P-108, 5-(2-methoxy-4-pyridyl)-3-[3-(2,2,2-trifluoroethyl)benzimidazol-5-yl]-1H-pyrrolo[2,3-b]pyridine], the half-inhibitory concentration (IC50) against FLT3-ITD and against FLT3-D835Y was 0.0001 to 1 µM each time.
In the case of `CC(C)(C)n1cnc2ccc(-c3c[nH]c4ncc(-c5cnc(C#N)c(Cl)c5)nc34)cc21` [P-361, 5-[7-(3-tert-butylbenzimidazol-5-yl)-5H-pyrrolo[2,3-b]pyrazin-2-yl]-3-chloro-pyridine-2-carbonitrile], the IC50 at FLT3-ITD and against FLT3-D835Y was 0.0001 to 1 µM each time.
As for `Cn1cnc2ccc(-c3c[nH]c4ncc(-c5ccc(F)c(C#N)c5)cc34)cc21` [P-141, 2-fluoro-5-[3-(3-methylbenzimidazol-5-yl)-1H-pyrrolo[2,3-b]pyridin-5-yl]benzonitrile], the IC50 against FLT3-ITD and on FLT3-D835Y was 0.0001 to 1 µM in each case.
Turning to `COc1cccc(-c2cnc3[nH]cc(-c4ccc5ncn(C)c5c4)c3n2)c1` [P-145, 2-(3-methoxyphenyl)-7-(3-methylbenzimidazol-5-yl)-5H-pyrrolo[2,3-b]pyrazine], the IC50 against FLT3-ITD and at FLT3-D835Y was 0.0001 to 1 µM throughout.
In the case of `CC(C)(C)n1cnc2ccc(-c3c[nH]c4ncc(-c5cnc(C6CC6)nc5)nc34)cc21` [P-342, 7-(3-tert-butylbenzimidazol-5-yl)-2-(2-cyclopropylpyrimidin-5-yl)-5H-pyrrolo[2,3-b]pyrazine], the IC50 against FLT3-ITD and at FLT3-D835Y was 0.0001 to 1 µM throughout.
With `Cn1cnc2ccc(-c3c[nH]c4ncc(-c5cnn(-c6ccccn6)c5)cc34)cc21` [P-174, 1-methyl-6-[5-[1-(2-pyridyl)pyrazol-4-yl]-1H-pyrrolo[2,3-b]pyridin-3-yl]benzimidazole], the IC50 against FLT3-ITD and against FLT3-D835Y was 0.0001 to 1 µM throughout.
Take `CC(C)S(=O)(=O)Nc1cccc(-c2cnc3[nH]cc(-c4ccc5ncn(C)c5c4)c3n2)c1` [P-152, N-[3-[7-(3-methylbenzimidazol-5-yl)-5H-pyrrolo[2,3-b]pyrazin-2-yl]phenyl]propane-2-sulfonamide]: the IC50 against FLT3-ITD and at FLT3-D835Y was 0.0001 to 1 µM throughout.
`CC(=O)Nc1cccc(-c2cnc3[nH]cc(-c4ccc5ncsc5c4)c3n2)c1` [P-159, N-[3-[7-(1,3-benzothiazol-6-yl)-5H-pyrrolo[2,3-b]pyrazin-2-yl]phenyl]acetamide]: the IC50 at FLT3-ITD and on FLT3-D835Y was 0.0001 to 1 µM in each case.
Regarding `COc1cc(-c2cnc3[nH]cc(-c4ccc5ncsc5c4)c3n2)cc(C)n1` [P-173, 6-[2-(2-methoxy-6-methyl-4-pyridyl)-5H-pyrrolo[2,3-b]pyrazin-7-yl]-1,3-benzothiazole], the IC50 against FLT3-ITD and on FLT3-D835Y was 0.0001 to 1 µM each time.
For the compound `Cn1cnc2ccc(-c3c[nH]c4ncc(C#Cc5ccccc5)cc34)cc21` [P-139, 1-methyl-6-[5-(2-phenylethynyl)-1H-pyrrolo[2,3-b]pyridin-3-yl]benzimidazole], the IC50 on FLT3-ITD and against FLT3-D835Y was 0.0001 to 1 µM each time.
As to `Cc1cc(-c2cnc3[nH]cc(-c4ccc5ncn(C(C)(C)C)c5c4)c3n2)cnc1C#N` [P-355, 5-[7-(3-tert-butylbenzimidazol-5-yl)-5H-pyrrolo[2,3-b]pyrazin-2-yl]-3-methyl-pyridine-2-carbonitrile], the IC50 at FLT3-ITD and at FLT3-D835Y was 0.0001 to 1 µM each time.
Take `O=C(O)Cc1cccc(-c2cnc3[nH]cc(-c4ccc5ncsc5c4)c3n2)c1` [P-164, 2-[3-[7-(1,3-benzothiazol-6-yl)-5H-pyrrolo[2,3-b]pyrazin-2-yl]phenyl]acetic acid]: the IC50 against FLT3-ITD and at FLT3-D835Y was 0.0001 to 1 µM in each case.
Turning to `COc1cnc2[nH]cc(-c3ccc4ncn(Cc5ccc(Cl)cc5)c4c3)c2c1` [P-111, 1-[(4-chlorophenyl)methyl]-6-(5-methoxy-1H-pyrrolo[2,3-b]pyridin-3-yl)benzimidazole], the IC50 against FLT3-ITD and on FLT3-D835Y was 0.0001 to 1 µM each time.
Regarding `CC(C)(C)n1cnc2ccc(-c3c[nH]c4ncc(-c5cnn(C6CC6)c5)nc34)cc21` [P-350, 7-(3-tert-butylbenzimidazol-5-yl)-2-(1-cyclopropylpyrazol-4-yl)-5H-pyrrolo[2,3-b]pyrazine], the IC50 at FLT3-ITD and on FLT3-D835Y was 0.0001 to 1 µM in each case.

The term IC50 denotes the concentration at which inhibition is half-maximal.
